How the values were obtained:
THP-1 monocytes [1] = assay: Cellular uptake in THP-1 monocytes at low temperature (4 °C); format: cell-based, human; conditions: 20.0 μM, 2 h; for effect of BSA addition on cellular uptake at low temperature: serum-depleted medium with 0–200.0 μM BSA
Procedure: THP-1 monocytes preincubated in 10% FBS/RPMI medium were collected. The collected cells (2.5 × 10^6) were suspended in 1.0 mL of 10% PBS/RPMI medium containing 0, 0.2, 2.0, 20.0, 32.4, and 200.0 μM BSA on ice. This suspension was immediately mixed with 4.0 mL of 10% PBS/RPMI medium containing BSA and vitamin E. The final composition was 5.0 mL of 10% PBS/RPMI medium containing 0, 0.2, 2.0, 20.0, 32.4, or 200.0 μM BSA, and 20.0 μM α-Toc or α-T3. Cells were incubated at 4 °C with slow rotation in a tube rotator. After 2 h incubation, the cell lysate was prepared as above, and vitamin E and protein levels were measured.
Vitamin E was extracted from the cell lysates according to the procedure described in our previous study. Tocol (Tama Biochemical, Tokyo, Japan) was used as an internal standard. The extract was analyzed by liquid chromatography-tandem mass spectrometry (LC–MS/MS). The LC–MS/MS system consisted of an ExionLC system and a 4000QTRAP mass spectrometer (SCIEX, Tokyo, Japan). An Inersil SIL-100A-5 column (4.6 mm × 250 mm; GL Science, Tokyo, Japan) was eluted with a mobile phase consisting of hexane/1,4-dioxane/2-propanol (100:4:0.5, v/v/v). The flow rate was 1.0 mL/min, and the column temperature was 40 °C. Vitamin E was detected in the multiple reaction monitoring (MRM) mode (Table 1) under atmospheric pressure chemical ionization. The ion source parameters were as follows: curtain gas, 45.0 psi; collision gas, 8.0 psi; nebulizer current, − 3.0 μA; temperature, 350.0 °C; ion source gas 1, 60.0 psi; interface heater, ON.

Jurkat cells = test system: Jurkat cells; design: method as in PMID 15753172; conditions: 1 μM α-Toc or α-T3, 24 hours; cited from earlier work
BSA = target: T1, BSA (Bos taurus, UniProt P02769); assay: Fluorescence quenching binding parameters between vitamin E and BSA; design: species or system bovine; conditions: 2.0 μM BSA, room temperature, mean ± S.E. (n = 3); for Stern–Volmer constant (Ksv) / Kd: excitation 280 nm, emission 340 nm; for Kd: read-out: apparent binding constant (Ka) (converted)
T1 construct: Bovine serum albumin (BSA; Fatty Acid/IgG/Protease-Free); purchased FUJIFILM Wako Pure Chemical Corporation, Ltd. (Osaka, Japan)
Procedure: The binding parameters of each Toc or T3 analog to BSA were measured with slight modifications to a previously described procedure[32],[34]. Each Toc or T3 analog was dissolved in DMSO at 10 mM, and added to a quartz cell containing 3.0 mL of 2.0 μM BSA stock solution to achieve a final concentration of 1.0–225.0 μM. […] Fluorescence spectra were recorded at room temperature using FP-6200 (JASCO, Tokyo, Japan) at an excitation wavelength of 280 nm and emission wavelengths from 300 to 500 nm. The intensity at 340 nm was used to calculate the Stern–Volmer constant (Ksv) by the following equation[39]: F0/F = 1 + Ksv[VE]. We also calculated the apparent binding constant (Ka) and the number of binding sites (n) by the following equation[40]: log((F0 − F)/F) = nlogKa − nlog(1/([VE] − [BSA](F0 − F)/F0)). Abbreviations in the above equations refer to follows: F0, initial fluorescence intensity; F, fluorescence intensity in the presence of each Toc or T3 analog; [VE], molar concentration of each Toc or T3 analog; [BSA], original BSA concentration. The same measurements were performed using a buffer solution without BSA, and the F values were calculated using the measured fluorescence intensity as a blank.

THP-1 monocytes [2] = assay: Cellular uptake of vitamin E in THP-1 monocytes (37 °C, LC–MS/MS); format: cell-based, human; conditions: 20.0 μM analog, serum-depleted medium with 0–200.0 μM BSA, 2 h
Procedure: THP-1 monocytes (2.5 × 10^6 cells) were preincubated in 5.0 mL of 10% FBS/RPMI medium. The cells (2.5 × 10^6 cells) were also preincubated in 5.0 mL of FBS-free 10% PBS/RPMI medium in the absence or presence of 0.2, 2.0, 20.0, 32.4, and 200.0 μM BSA (each medium was prepared by dissolving the 2.0 mM BSA stock solution in 10% PBS/RPMI medium). After 24 h of these preincubations, 5.0 μL of each vitamin E stock solution was added to 10% FBS/RPMI medium or 10% PBS/RPMI medium at a final concentration of 20.0 μM and further incubated for 2 h. […] The incubated cells were collected by centrifugation and washed with PBS. The cells were resuspended in 0.6 mL water and homogenized on ice. A part of the lysate (0.5 mL) was used to analyze vitamin E (described below), and the remaining 0.1 mL was used to quantify protein by the BCA Protein Assay (Thermo Fisher Scientific).
Vitamin E was extracted from the cell lysates according to the procedure described in our previous study. Tocol (Tama Biochemical, Tokyo, Japan) was used as an internal standard. The extract was analyzed by liquid chromatography-tandem mass spectrometry (LC–MS/MS). The LC–MS/MS system consisted of an ExionLC system and a 4000QTRAP mass spectrometer (SCIEX, Tokyo, Japan). […] Vitamin E was detected in the multiple reaction monitoring (MRM) mode (Table 1) under atmospheric pressure chemical ionization. […]

LNCaP cells = test system: LNCaP cells; design: method as in PMID 21400505; conditions: 50 μM γ-Toc or 10 μM γ-T3, 6 hours; cited from earlier work
PC-3 cells = test system: PC-3 cells; design: method as in PMID 21400505; conditions: 50 μM γ-Toc or 10 μM γ-T3, 6 hours; cited from earlier work
THP-1 monocytes [3] = assay: Cellular uptake in THP-1 monocytes with ATP synthesis inhibitors; format: cell-based, human; conditions: 10.0 μM vitamin E, 10.0 μM BSA, 1 mM DNP or 10 mM NaN3 + 5 mM 2DG, 1 h, 37 °C, vs control
Procedure: To further investigate cellular uptake mechanism, cell culture study was conducted using two ATP synthesis inhibitors as follows: (1) 1 mM 2,4-dinitrophenol or (2) a mixture of 10 mM sodium azide and 5 mM 2-deoxy-D-glucose[45]. THP-1 monocytes (2.5 × 10^6) preincubated in 10% FBS/RPMI medium were collected, suspended in 1.0 mL of PBS(+)[45] containing each inhibitor, and preincubated for 10 min at 37 °C under slow rotation in a tube rotator. […] Control samples were similarly prepared without the addition of inhibitors and incubated for 1 h. Vitamin E and protein levels were measured as described above.
Figure S1 The effect of two ATP synthesis inhibitors (1 mM 2,4-dinitrophenol (DNP) or a mixture of 10 mM sodium azide and 5 mM 2-deoxy-D-glucose (NaN3+2DG)) on the […]
Cells were incubated in PBS(+) […]
hour. Control samples were similarly incubated without the addition of inhibitors. […]
the main article. Values are expressed as mean ± SE of three independent experiments.
The statical significance of the results was analyzed using Dunnett's test, where p < 0.05 was considered statistically significant . […]
and samples treated with ATP synthesis inhibitor.
(1 picture or pasted object on this page, not shown here)

T1 sequence (P02769 25-607): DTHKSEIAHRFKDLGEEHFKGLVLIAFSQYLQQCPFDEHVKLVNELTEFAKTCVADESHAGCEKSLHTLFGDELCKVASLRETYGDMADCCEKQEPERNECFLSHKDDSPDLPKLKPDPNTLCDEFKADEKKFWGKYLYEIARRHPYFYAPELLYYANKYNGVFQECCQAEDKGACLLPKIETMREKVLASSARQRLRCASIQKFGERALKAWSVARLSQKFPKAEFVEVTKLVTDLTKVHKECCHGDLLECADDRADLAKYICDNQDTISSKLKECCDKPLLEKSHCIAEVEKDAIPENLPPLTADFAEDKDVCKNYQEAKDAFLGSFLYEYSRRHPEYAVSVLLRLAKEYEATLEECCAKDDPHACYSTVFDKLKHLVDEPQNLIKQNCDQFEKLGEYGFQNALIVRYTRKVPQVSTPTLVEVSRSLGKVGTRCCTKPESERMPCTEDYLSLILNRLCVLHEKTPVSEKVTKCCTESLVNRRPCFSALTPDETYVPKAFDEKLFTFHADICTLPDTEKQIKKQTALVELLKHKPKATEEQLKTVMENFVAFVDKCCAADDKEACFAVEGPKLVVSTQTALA

SMILES	cellular concentration compared with α-Toc at low temperature (THP-1 monocytes [1]; BSA-containing medium)	Stern–Volmer constant (Ksv) (BSA)	Kd (BSA) [µM]	number of binding site (n) (BSA)	effect of ATP synthesis inhibitors on cellular uptake (THP-1 monocytes [3])	effect of BSA addition on cellular uptake at low temperature (THP-1 monocytes [1])	cellular uptake relative to α-Toc (Jurkat cells) [fold]	effect of BSA addition on cellular concentration (THP-1 monocytes [2])	cellular uptake compared with γ-Toc (LNCaP cells)	cellular uptake compared with γ-Toc (PC-3 cells)
Cc1c(C)c2c(c(C)c1O)CC[C@@](C)(CCC[C@H](C)CCC[C@H](C)CCCC(C)C)O2 [α-Toc]	–	0.93 ± 0.06 × 10^4 M^−1	99	0.69 ± 0.02	–	reduced upon the addition of BSA	–	particularly pronounced	–	–
CC(C)=CCC/C(C)=C/CC/C(C)=C/CC[C@]1(C)CCc2cc(O)c(C)c(C)c2O1 [γ-T3]	–	1.35 ± 0.01 × 10^4 M^−1	62.1	0.74 ± 0.02	–	–	–	–	higher cellular uptake than γ-Toc	higher cellular uptake than γ-Toc
Cc1c(O)cc2c(c1C)O[C@](C)(CCC[C@H](C)CCC[C@H](C)CCCC(C)C)CC2 [γ-Toc]	–	0.82 ± 0.01 × 10^4 M^−1	115	0.71 ± 0.02	–	–	–	–	–	–
Cc1cc(O)cc2c1O[C@](C)(CCC[C@H](C)CCC[C@H](C)CCCC(C)C)CC2 [δ-Toc]	–	0.89 ± 0.04 × 10^4 M^−1	105	0.71 ± 0.01	No significance	–	–	–	–	–

The next lines start with results.

cellular concentration compared with α-Toc at low temperature (THP-1 monocytes [1]; BSA-containing medium)	Stern–Volmer constant (Ksv) (BSA)	Kd (BSA) [µM]	number of binding site (n) (BSA)	effect of ATP synthesis inhibitors on cellular uptake (THP-1 monocytes [3])	SMILES	effect of BSA addition on cellular uptake at low temperature (THP-1 monocytes [1])	cellular uptake relative to α-Toc (Jurkat cells) [fold]	effect of BSA addition on cellular concentration (THP-1 monocytes [2])	cellular uptake compared with γ-Toc (LNCaP cells)	cellular uptake compared with γ-Toc (PC-3 cells)
slightly higher than that of α-Toc	1.19 ± 0.07 × 10^4 M^−1	69.4	0.70 ± 0.04	–	CC(C)=CCC/C(C)=C/CC/C(C)=C/CC[C@]1(C)CCc2c(C)c(O)c(C)c(C)c2O1 [α-T3]	did not observe the BSA-induced increase	6.5	–	–	–
–	1.39 ± 0.13 × 10^4 M^−1	59.5	0.76 ± 0.00	–	CC(C)=CCC/C(C)=C/CC/C(C)=C/CC[C@]1(C)CCc2c(C)c(O)cc(C)c2O1 [β-T3]	–	–	–	–	–
–	1.00 ± 0.02 × 10^4 M^−1	95.2	0.69 ± 0.01	–	Cc1cc(O)c(C)c2c1O[C@](C)(CCC[C@H](C)CCC[C@H](C)CCCC(C)C)CC2 [β-Toc]	–	–	–	–	–
–	1.51 ± 0.02 × 10^4 M^−1	55.2	0.78 ± 0.01	No significance	CC(C)=CCC/C(C)=C/CC/C(C)=C/CC[C@]1(C)CCc2cc(O)cc(C)c2O1 [δ-T3]	–	–	increase the most	–	–
